Results reported in PubChem BioAssay (NCI).
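The compound was tested at five concentrations on cells cultured in 96-well plates, with a 48-hour exposure period. GI50 is the concentration that inhibits growth by half. The concentration for full growth arrest is given as TGI.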

Tests used:
Test in all cases: NCI tumour cell line growth inhibition, 48 h
HCT-15 colon = tested on: HCT-15 colon
HOP-92 NSCLC = tested on: HOP-92 NSCLC
HT29 colon = tested on: HT29 colon
K-562 leukemia = tested on: K-562 leukemia
MALME-3M melanoma = tested on: MALME-3M melanoma
OVCAR-3 ovarian = tested on: OVCAR-3 ovarian
SN12C renal = tested on: SN12C renal
UACC-62 melanoma = tested on: UACC-62 melanoma
RXF 393 renal = tested on: RXF 393 renal

Row | Compound | TGI (HCT-15 colon) [µM] | TGI (HOP-92 NSCLC) [µM] | TGI (HT29 colon) [µM] | TGI (K-562 leukemia) [µM] | TGI (MALME-3M melanoma) [µM] | TGI (OVCAR-3 ovarian) [µM] | TGI (SN12C renal) [µM] | TGI (UACC-62 melanoma) [µM] | TGI (RXF 393 renal) [µM] | GI50 (HCT-15 colon) [µM] | GI50 (HOP-92 NSCLC) [µM] | GI50 (HT29 colon) [µM] | GI50 (K-562 leukemia) [µM] | GI50 (MALME-3M melanoma) [µM] | GI50 (OVCAR-3 ovarian) [µM] | GI50 (RXF 393 renal) [µM] | GI50 (SN12C renal) [µM] | GI50 (UACC-62 melanoma) [µM]
1 | Cc1nc(-c2nc(C)c(C(=O)NN(C)C)s2)sc1C(=O)NN(C)C | > 100 | > 100 | > 100 | > 100 | > 100 | > 100 | > 100 | > 100 | – | – | – | – | – | – | – | – | – | –
2 | CC1=C(C(=O)CC(=O)C(=O)Nc2ccccc2)Sc2ccccc2N1 | > 100 | > 100 | > 100 | > 100 | > 100 | > 100 | > 100 | > 100 | > 100 | – | – | – | – | – | – | – | – | –
3 | Nc1ccc2c(c1)CC1c3ccccc3C(C2)c2ccccc21 | > 100 | > 100 | > 100 | > 100 | > 100 | – | > 100 | > 100 | > 100 | – | – | – | – | – | – | – | – | –
4 | CCOC(=O)C(Cc1ccccc1)NC(=O)OC(C)(C)C (centres undefined) | > 100 | > 100 | > 100 | > 100 | > 100 | > 100 | > 100 | > 100 | – | – | – | – | – | – | – | – | – | –
5 | O=C(/C=C/c1ccccc1O)c1cccnc1 | – | – | > 100 | > 100 | > 100 | > 100 | > 100 | > 100 | > 100 | – | – | – | – | – | – | – | – | –
6 | CC(=O)C1C(=O)C(=O)N(c2ccccc2N2C(=O)C(=O)C(C(C)=O)C2=O)C1=O (centres undefined) | > 100 | > 100 | > 100 | > 100 | > 100 | > 100 | > 100 | > 100 | > 100 | – | – | – | – | – | – | – | – | –
7 | Cc1ccc(S(=O)(=O)SCc2ccccc2CSS(=O)(=O)c2ccc(C)cc2)cc1 | 48.6 | 51.7 | 52.9 | 47 | > 100 | 43.7 | 33.6 | 31 | 29.6 | – | – | – | – | – | – | – | – | –
8 | O=C1[C@@H]2C3SC(c4ccccc43)[C@@H]2C(=O)N1c1ccccc1 | > 100 | > 100 | > 100 | > 100 | > 100 | > 100 | > 100 | > 100 | > 100 | – | – | – | – | – | – | – | – | –
9 | CC(=O)OCC1OC(n2c(=O)n(-c3ccccc3)c(=O)c3cc(Br)cc(Br)c32)C(OC(C)=O)C(OC(C)=O)C1OC(C)=O (centres undefined) | > 100 | > 100 | > 100 | > 100 | > 100 | > 100 | > 100 | > 100 | > 100 | – | – | – | – | – | – | – | – | –
10 | O=C(O)CCCCCO | > 100 | > 100 | > 100 | > 100 | > 100 | > 100 | > 100 | > 100 | > 100 | – | – | – | – | – | – | – | – | –
11 | CCC1(C(=O)OC)CCc2c(OC)ccc(OC)c2C1=O (centres undefined) | > 100 | – | > 100 | > 100 | > 100 | > 100 | > 100 | > 100 | – | – | – | – | – | – | – | – | – | –
12 | Cc1c(C(=O)/C=C/c2ccccc2Cl)[n+](=O)c2ccccc2n1[O-] | 21.7 | 28.7 | 33.8 | 26.5 | 29.2 | 29.4 | 28.4 | – | – | – | – | – | – | – | – | – | – | –
13 | O=C(CC(=O)Nc1ccccc1O)Nc1ccccc1O | 21.8 | > 100 | > 100 | 25.7 | 37.7 | 46 | 33.8 | 10.9 | – | – | – | – | – | – | – | – | – | –
14 | CC(=O)Nc1ccccc1-c1cnc2ccccc2n1 | > 100 | > 100 | > 100 | > 100 | > 100 | > 100 | > 100 | > 100 | – | – | – | – | – | – | – | – | – | –
15 | Cc1ccc(C2(O)CC(c3ccc([N+](=O)[O-])o3)=NN2C(=O)COc2ccccc2Cl)cc1 (centres undefined) | 24.1 | > 95.3 | > 42 | > 100 | 40.3 | 19.9 | > 49.1 | 24.5 | – | – | – | – | – | – | – | – | – | –
16 | NCCCC1NC(=O)/C(=C(O)/C=C/C2CCC[C@@H]2CC2SCCS2)C1=O (some centres undefined) | – | 99.8 | > 100 | > 100 | > 100 | > 100 | > 100 | > 100 | > 100 | – | – | – | – | – | – | – | – | –
17 | CCC[CH2][Ge]([CH2]CCC)([CH2]CCC)[O]C(=O)C(OC)c1ccccc1 (centres undefined) | 32.4 | 98.3 | > 100 | > 100 | > 100 | > 70.2 | > 100 | > 100 | 27.8 | 9.52 | 9.53 | 25.4 | 2.07 | 26.7 | 11.1 | 6.9 | 46.4 | 30.7
